Entries after “also recorded” stand apart in the source; their conditions may differ.
Legend:
HeLa cells [1] = experiment: Peptide-induced cell death, counting dead and survived cells under the light microscope; type: cell-based; conditions: peptides 10 μM, 20 μM, 30 μM, 10 minutes after treatment (FIG. 1B, 3A)
Description: (B) HeLa cells were treated with DMSO or the indicated peptides in increasing doses (10 μM, 20 μM, and 30 μM). % of cell death was determined at 10 minutes after treatment by counting the dead cells and survived cells under the light microscope.
(E) HeLa cells were transfected with substitution mutants of MTD peptide.
HeLa cells were treated with DMSO or with the indicated peptides at increasing doses (10 μM, 20 μM, or 30 μM). % cell death was determined 10 minutes after treatment by counting the dead cells and survived cells (300 cells per sample) under the light microscope.
(D) HeLa cells were treated with indicated amounts of MTD peptide for 1 hour, 2 hours, or 5 hours. % cell death was calculated by counting the dead cells and survived cells (200 to 500 cells per sample) under the light microscope. Data represent the means±SD of three independent experiments.

NCI-H460 cells = experiment: Peptide-induced cell death in NCI-H460 cells; type: cell-based; conditions: 5 μM, 2 or 5 hours (FIG. 3C)
Description: (C) NCI-H460 cells were treated with indicated peptides for 2 hours or 5 hours. % cell death was determined as described above.

A549 cells = experiment: Peptide-induced cell death in A549 cells; type: cell-based; conditions: 5 μM, 1, 2 or 5 hours (FIG. 3D)
Description: (D) A549 cells were treated with indicated peptides for 1, 2, or 5 hours. % cell death was determined as described above.

HeLa cells [2] = experiment: Live cell images and annexin V / SYTOX Green staining of dying cells; type: cell-based
Description: (§1) (A) HeLa cells were treated with MTD peptides (10 μM), or TRAIL (100 ng/ml). Images were taken at the indicated times (upper panel). Jurkat cells were treated with MTD peptide (10 μM) for 10 minutes, cells were processed for TEM. Images were obtained with 4,000× magnification (lower panel). N: nucleus, M: mitochondrion.
(D) HeLa cells were treated with the MTD (5 μM) peptide with or without the pretreatment of 10 μM BAPTA-AM for 2 hours. Live cell images were serially acquired at 10-second intervals for 10 minutes and shown at the indicated times.
(A) HeLa cells were stained with FITC-conjugated Annexin V antibody at 10 minutes after DMSO or MTD treatment. Images were obtained under the confocal microscope.
(B) HeLa cells were stained with SYTOX Green 10 minutes after DMSO or MTD treatment. Images were obtained using confocal microscope.

Jurkat cells = experiment: Transmission electron microscopy of peptide-treated cells; type: cell-based; conditions: 10 μM for 10 minutes
Description: as §1
(§2) Jurkat cells or isolated mitochondria treated with MTD peptides were harvested by centrifugation and fixed with 2.5% glutaraldehyde for 2 hours followed by washing with 0.2 M sodium cacodylate buffer (pH 7.2) three times for 10-20 minutes. Fixation step was repeated overnight and washed with 0.2 M sodium cacodylate buffer three times. Samples were dehydrated with following sequential solutions 60% ethanol, 70% ethanol, 80% ethanol, 90% ethanol, 95% ethanol, and 100% ethanol twice for 20 minutes at 4° C., and then infiltrated by propylene oxide three times for 20 minutes. Samples were embedded with the mixture of propylene oxide and epon for 6 hours. Electron microscopic images were obtained using the Hitachi H-7600 electron microscope (80 kV, Hitachi, Tokyo, Japan). Mitochondria were isolated from mouse liver as previously described (1).

HeLa cells [3] = experiment: HMGB1 release into the media, western blot; type: cell-based; conditions: 10 μM, 10 to 30 minutes, serum-free medium
Description: (C) HeLa cells were treated with DMSO or MTD peptides (10 μM) for 10 minutes or 30 minutes in the serum-free culture medium. After treatment, culture mediums were collected. Proteins in the conditioned media were precipitated by 2.5 vol. of methanol and 0.1 vol. of 5M NaCl. Precipitates and cell lysates were subjected to SDS-PAGE and western blot analysis with anti-HMGB1 antibody (R&D systems, Minneapolis, Minn.).

HeLa cells [4] = experiment: Cytochrome c release by immunofluorescence; type: cell-based; conditions: HeLa cells; MTD peptide 5 μM
Description: (B) Plasmids (control vector or Noxa WT fused to GFP) were transfected into HeLa cells. After 2 days in the presence of zVAD-fmk, cytochrome c was stained with anti-cytochrome c antibody. Arrows indicate the diffused cytochrome c staining (upper panel). The release of cytochrome c was analyzed by immunofluorescence in HeLa cells after treatment with MTD peptides (5 μM) (lower panel).

[5] = tested on: Isolated mouse liver mitochondria; experiment: Isolated mitochondria treated with peptide, transmission electron microscopy; conditions: 10 μM peptide; 1 hour at 30° C.
Description: (D) Isolated mouse liver mitochondria were treated with buffer (NT), MTD peptide (10 μM), or MTDmt5 peptide (10 μM), and then incubated for 1 hour at 30° C. Mitochondria were harvested by centrifugation (10,000×rpm) and then processed for transmission electron microscopy. Images (upper panel) were obtained with 7,000× magnification, and the relative mitochondrial sizes (lower panel) were calculated by measuring the diameters of about 40 individual mitochondria.
as §2

HeLa cells [6] = experiment: Caspase activation, western blot of cell lysates; type: cell-based; conditions: 5 μM peptide
Description: (E) After treatment with the MTD peptide, MTDmt4, or MTDmt5 (5 μM) in HeLa cells, cell lysates were prepared at indicated times. Equal amounts of proteins were subjected to the SDS-PAGE and blotted onto PVDF membrane. After blocked with 5% nonfat milk in TBST (10 mM Tris-HCl, pH 7.5, 100 mM NaCl and 0.1% Tween-20), the membrane was probed with anti-caspase-3 (SantaCruz Biotechnology, Inc., Santa Cruz, Calif., USA), anti-caspase-8 (Cell signaling technology, Beverly, Mass., USA), anti-caspase-9 (SantaCruz Biotechnology, Inc., Santa Cruz, Calif.), anti-XIAP (Upstate Biotechnology, Dundee, United Kingdom), or anti-Bid (home-made) antibodies. Anti-actin antibody (Chemicon International, Inc., Temecula, Calif., USA) was used as equal loading control.

HeLa cells [7] = experiment: Measurement of intracellular calcium with Fluo-4-AM; type: cell-based; conditions: 3 μM peptide
Description: (A-C) HeLa cells were loaded with 3 μM Fluo-4-AM for 30 minutes and then treated with 3 μM of indicated peptides (A: MTD, B: MTDmt3, C: MTDmt5). Fluorescence images and bright-field images were obtained with the laser scanning confocal microscope at 5-second intervals for 5 minutes. Relative fluorescence intensities (F/F0) at two region-of-interests (ROI 1 and 2) were measured at 5-second intervals for 5 minutes.
(E-G) HeLa cells were pretreated in calcium free KRB media alone (E), in KRB media with 10 μM 2-APB and 20 μM Ryanodine (F), or in KRB media with freshly made 30 μM CsA (G) for 2 hours. HeLa cells were then loaded with 3 μM Fluo-4-AM for 30 minutes and treated with 3 μM of MTD peptide. Images were obtained with the laser scanning confocal microscope at 5-second intervals for 5 minutes. Relative fluorescence intensities (F/F0) at two region-of-interests (ROI 1 and 2) were measured at 5-second intervals for 5 minutes.
For Ca^2+ measurements in the cytosol, HeLa cells were cultured in an Lab-Tek™ Chamber glass slide and loaded with Fluo-4-AM (Fluo-4-acetoxymethyl ester) at a final concentration of 3 μM for 30 minutes, followed by washing with PBS (Phosphate buffered saline) at pH 7.4 and the addition of fresh Ca^2+-free Krebs-ringer modified buffer (KRB: 125 mM NaCl, 5 mM KCl, 1 mM Na3PO4, 1 mM MgSO4, 5.5 mM glucose, and 20 mM HEPES, pH 7.4, at 37° C.) containing the indicated peptides. Time-lapse images were obtained at 488 nm excitation with the Argon laser scanning confocal microscope (Leica TCS SP5 Microsystems, Mannheim, Germany) at 10-second intervals for 5 minutes to visualize Fluo-4-AM.

mPT pore = experiment: Cobalt-quenched calcein assay; type: cell-based; conditions: HeLa cells; within 5 minutes after treatment
Description: (A) HeLa cells were loaded with 1 μM Calcein-AM and 2 mM cobalt for 15 minutes, and the mitochondria were stained by adding 25 μM MitoTracker for 2 minutes. The representative image of the calcein signals (green) that were overlapped with MitoTracker (Red) was shown.
(B) Time-lapse images of calcein and MitoTracker signals from HeLa cells that were not treated (top panel) or treated (bottom panel) with MTD peptide were obtained at 10-second intervals for 5 minutes. The representative images at the indicated time points were shown.
HeLa cells were loaded with 1 μM Calcein-AM and 2 mM cobalt in serum-free DMEM for 15 minutes, followed by adding 25 μM MitoTracker for 2 minutes to stain the mitochondria. Then, HeLa cells were briefly washed with HBSS (Hank's Buffered Salt Solution) and were treated with MTD peptide in calcium-free media containing 10% FBS (Fetal bovine serum). Time-lapse images were obtained at 10-second intervals for 10 minutes.

With RRRRRRRRGRQKLLNLISKLF [MTD] the “cell death-inducing activity (% of cell death)” value (HeLa cells [1]) was “comparable cell death-inducing activity to NoxaBH3MTD peptide”, the “susceptibility of cells to peptide” value (NCI-H460 cells) was “very susceptible” and the “susceptibility of cells to peptide” value (A549 cells) was “very resistant”. The “annexin V and SYTOX Green staining” value (HeLa cells [2]; 10 minutes after treatment) was “stained with annexin V and SYTOX Green”, the “morphology of dying cells” value (HeLa cells [2]; MTD peptide 10 μM or TRAIL 100 ng/ml (FIG. 2A, 7A, 7B)) was “bubble-like structures of dying cells; also recorded: swollen cytoplasmic membrane” and the “ultrastructural changes by transmission electron microscopy” value (Jurkat cells) was “swollen mitochondria, the enlarged nucleus and cell membrane swelling; also recorded: swelled mitochondria”. For the same sequence, the “HMGB1 release to the media” value (HeLa cells [3]) was “significantly released to the media”, the “cytochrome c release from the mitochondria to the cytosol” value (HeLa cells [4]) was “not released; also recorded: neither cytochrome c release” and the “morphological changes or mitochondrial size changes of isolated mitochondria” value [5] was “did not show any morphological changes or mitochondrial size changes; also recorded: no morphological changes”. For the same sequence, the caspase activation (HeLa cells [6]) was “not activated”, the “cytosolic calcium level change” value (HeLa cells [7]) was “substantially increased” and the “time to cytosolic calcium increase after treatment” value (HeLa cells [7]) was 1 to 3 min. The “mitochondrial calcein signals (mPT pore opening)” value (mPT pore) was “significantly decreased”.
